In patent US10525055B2, “Opioid receptor antagonist prodrugs” (Nirsum Laboratories, Inc., priority 2017, dated 2020):

Tests used:
[1] = Dog pharmacokinetic studies, deep intramuscular; format: in vivo, Beagle dogs; conditions: dog IM, 48 mg/kg, Sesame oil + 1% Benzyl Alcohol
Method: The purpose of this study is to determine the pharmacokinetics of test compounds in plasma, following deep intramuscular administration to Beagle dogs (n=3, unless otherwise specified).
(§1) The dose formulation (concentration−400 mg base equivalents/ml in sesame oil+1% benzyl alcohol, unless otherwise specified) was administered via deep intramuscularly (unless otherwise specified). The injection vehicle was also dosed via deep intramuscular route (unless otherwise specified) on contralateral site of each animal at study initiation. The animals were sedated with Propofol at 6 mg/kg via IV administration. Following sedation hair was carefully removed from around the injection site and the area gently cleaned. Care will be taken to avoid irritating skin during shaving and cleaning the injection site. Then dogs will be dosed with deep IM administration. At least 2.5 cm depth from the surface into the central aspect of the quadriceps or biceps femoris muscle, by angling the needle toward the femur. If the needle hits the femur, simply draws back slightly and then inject. The dose volume will be determined by the animals' body weight collected on the morning of dosing day. For repeated administration, the injection sites may be rotated to minimize tissue injury.
Blood samples were collected from a peripheral vessel from restrained, non-sedated animals per sampling time point.
Approximately 0.8 mL blood will be collected at each time point.
(§2) Each collected blood sample was centrifuged for 4 minutes at 4° C. and 10000 rpm for plasma collection. Plasma was collected and transferred into a pre-labeled PP tube in dry ice at each time point and precipitated immediately using ACN at a ratio of 1:4 (plasma:ACN). Centrifuged again (10 minutes, 12000 rpm) and obtain the supernatant.
After terminal collection, all supernatant was stored at approximately −80° C. F until bioanalysis.
(§3) LC-MS/MS methods for the quantitative determination of test compound in biological matrix were developed. […] The sample analysis was performed concurrently with a set of calibration standards and two sets of QC samples using the LC-MS/MS method.
(§4) Plasma concentration versus time data was analyzed by non-compartmental approaches using the Phoenix WinNonlin 6.3 software program. Cmax, Tmax, T1/2, AUC(0-t), AUC(0-inf), MRT(0-t), MRT(0-inf) and graphs of plasma concentration versus time profile were prepared.

[2] = Plasma stability assay, rat plasma; format: in vitro ADME; conditions: 37° C., 10 μM
Method: Plasma stability determination of the test compounds in rat, dog, cynomolgus monkey and human plasma is performed using HPLC-MS. For rat, incubations are carried out in 96-well polypropylene plates in 5 aliquots of 70 μL each (one for each time point). […] Five time points are analyzed (0, 15, 120, 480 and 1440 min). For dog, monkey and human, test compounds (2 μM, final solvent concentration 1%) were also incubated at 37° C. and analyzed at five time points (0, 10, 30, 60 and 120 min). All incubations are performed in duplicates. The samples are analyzed by HPLC-MS. The percentage of parent compound remaining after incubation in plasma is determined.

[3] = Solubility determination in oil (cottonseed oil, sesame oil); conditions: heating temp. 60 °C
Method: A known amount of test substance (˜40 mg) was weighed into the vial, 100 μL of oil was added and heated to 60° C. and then system was slurried to reach equilibrium. […] Extra oil was added into the vial once compound precipitated out and then the system was re-equilibrated at 1000 rpm at room temperature (25° C.). Final concentration was determined by HPLC method as described below in Table 6a and 6b.

[4] = Dog clinical observations after intramuscular dosing; format: in vivo, Beagle dogs; conditions: dog D1502, compound 18 at 48 mg/kg; earlier weight, reported at 96 hr
Method: Weight monitoring was done every week.
as §1

[5] = Rat pharmacokinetic studies, intramuscular; format: in vivo, male Sprague Dawley Rats; conditions: for Mean conc Nalmefene: rat plasma, IM, 86 mg/ml at 17 mg/kg
Method: The purpose of this study is to determine the pharmacokinetics of test compounds in plasma, following intramuscular administration to male Sprague Dawley Rats (n=3, unless otherwise specified).
The dose formulation of 400 mg base equivalents/ml in sesame oil+1% benzyl alcohol (unless otherwise specified) was administered by intramuscular injection. The dose volume was determined by the animals' body weight determined on the morning of dosing day.
as §2
After terminal collection, all supernatant was stored at approximately −80° C. until bioanalysis.
as §3, §4

[6] = rat IM, 17 mg/kg, Sesame oil + 1% Benzyl Alcohol

Compound | % remaining at time point in minutes, 0 min [2] | % remaining at time point in minutes, 15 min [2] | % remaining at time point in minutes, 120 min [2] | % remaining at time point in minutes, 480 min [2] | % remaining at time point in minutes, 1440 min [2] | Approximate Solubility (mg/mL) in Excipient: Sesame oil ([3]; obs. temp. 25 °C) | further results
C=C1CC[C@@]2(O)C3Cc4ccc(OCOC(=O)OCCCCCCCC/C=C/CCCCCCCC)c5c4[C@@]2(CCN3CC2CC2)[C@H]1O5 [Compound 1, (((4aS,7aS,12bS)-3-(cyclopropylmethyl)-4a-hydroxy-7-methylene-2,3,4,4a,5,6,7,7a-octahydro-1H-4,12-methanobenzofuro[3,2-e]isoquinolin-9-yl)oxy)methyl ((E)-octadec-9-en-1-yl) carbonate] | – | – | – | – | – | – | AUC0-inf (ng · h/mL) prodrug [1]: 1040 ng·h/mL; Half-life t1/2 (hour) prodrug [1]: 261 h
CCCCCCCC/C=C/CCCCCCCCOC(=O)OCOc1ccc2c3c1O[C@H]1C(=O)CC[C@@]4(O)C(C2)N(CC2CC2)CC[C@]314 [Compound 7, (((4aS,7aR,12bS)-3-(cyclopropylmethyl)-4a-hydroxy-7-oxo-2,3,4,4a,5,6,7,7a-octahydro-1H-4,12-methanobenzofuro[3,2-e]isoquinolin-9-yl)oxy)methyl ((E)-octadec-9-en-1-yl) carbonate] | – | – | – | – | – | – | AUC0-inf (ng · h/mL) prodrug [1]: 610 ng·h/mL
C=C1CC[C@@]2(O)C3Cc4ccc(OC(=O)OCCCCCCCCCC)c5c4[C@@]2(CCN3CC2CC2)[C@H]1O5 [Compound 18, (4aS,7aS,12bS)-3-(cyclopropylmethyl)-4a-hydroxy-7-methylene-2,3,4,4a,5,6,7,7a-octahydro-1H-4,12-methanobenzofuro[3,2-e]isoquinolin-9-yl decyl carbonate] | 100% | 0.6% | 0.3% | 0.1% | 0% | >402 mg/mL | Approximate Solubility (mg/mL) in Excipient: Cottonseed oil ([3]; obs. temp. 25 °C): >400 mg/mL; weight decreases from (earlier weight), D1502 [4]: 7.76 kg
CCCCCCCCCCCCOC(=O)OCOc1ccc2c3c1O[C@H]1C(=O)CC[C@@]4(O)C(C2)N(CC2CC2)CC[C@]314 [Compound 29, (((4aS,7aR,12bS)-3-(cyclopropylmethyl)-4a-hydroxy-7-oxo-2,3,4,4a,5,6,7,7a-octahydro-1H-4,12-methanobenzofuro[3,2-e]isoquinolin-9-yl)oxy)methyl dodecyl carbonate] | – | – | – | – | – | >416.5 mg/mL | AUC0-inf (ng · h/mL) prodrug ([5]; rat IM, 165 mg/kg, Sesame oil + 1% Benzyl Alcohol): 74.8 ng·h/mL
CCCCC/C=C\C/C=C\CCCCCCCC(=O)Oc1ccc2c3c1O[C@H]1C(=O)CC[C@@]4(O)C(C2)N(CC2CC2)CC[C@]314 [Compound 53, (4aS,7aR,12bS)-3-(cyclopropylmethyl)-4a-hydroxy-7-oxo-2,3,4,4a,5,6,7,7a-octahydro-1H-4,12-methanobenzofuro[3,2-e]isoquinolin-9-yl (9Z,12Z)-octadeca-9,12-di.enoate] | 100% | 46.85% | 19.6% | 7.3% | 1.9% | >401.9 mg/mL | Approximate Solubility (mg/mL) in Excipient: Cottonseed oil ([3]; obs. temp. 25 °C): >408.5 mg/mL; Approximate Solubility (mg/mL) in Excipient: Sesame oil ([3]; obs. temp. 40 °C): >406.3 mg/mL
CCCCCCCCCCCCCCCCCC(=O)Oc1ccc2c3c1O[C@H]1C(=O)CC[C@@]4(O)C(C2)N(CC2CC2)CC[C@]314 [Compound 54, (4aS,7aR,12bS)-3-(cyclopropylmethyl)-4a-hydroxy-7-oxo-2,3,4,4a,5,6,7,7a-octahydro-1H-4,12-methanobenzofuro[3,2-e]isoquinolin-9-yl stearate] | 100% | 98.8% | 62.4% | 45.6% | 19.4% | <50 mg/mL | –
CCCCCCCCCCCCCC(=O)Oc1ccc2c3c1O[C@H]1C(=O)CC[C@@]4(O)C(C2)N(CC2CC2)CC[C@]314 [Compound 57, (4aS,7aR,12bS)-3-(cyclopropylmethyl)-4a-hydroxy-7-oxo-2,3,4,4a,5,6,7,7a-octahydro-1H-4,12-methanobenzofuro[3,2-e]isoquinolin-9-yl tetradecanoate] | 100% | 10.5% | 3.2% | 1.2% | 0% | >417.3 mg/mL | –
CCCCCCCCCCCCCCC(=O)Oc1ccc2c3c1O[C@H]1C(=O)CC[C@@]4(O)C(C2)N(CC2CC2)CC[C@]314 [Compound 58, (4aS,7aR,12bS)-3-(cyclopropylmethyl)-4a-hydroxy-7-oxo-2,3,4,4a,5,6,7,7a-octahydro-1H-4,12-methanobenzofuro[3,2-e]isoquinolin-9-yl pentadecanoate] | 100% | 37% | 20% | 2.9% | 1.8% | 99.4 to 198.8 mg/mL | –
C=C1CC[C@@]2(O)C3Cc4ccc(OC(=O)CCCCCCCCCCC)c5c4[C@@]2(CCN3CC2CC2)[C@H]1O5 [Compound 59, (4aS,7aS,12bS)-3-(cyclopropylmethyl)-4a-hydroxy-7-methylene-2,3,4,4a,5,6,7,7a-octahydro-1H-4,12-methanobenzofuro(3,2-c]isoquinolin-9-yl dodecanoate, reference compound] | 100% | 5.9% | 0.7% | 0.2% | 0% | – | AUC0-inf (ng · h/mL) nalmefene [5, 6]: 1026 ng·h/mL; AUC0-inf (ng · h/mL) prodrug [5, 6]: 10.4 ng·h/mL; Half-life t1/2 (hour) prodrug [5, 6]: 15.2 h; Terminal Half-life t1/2 (hour) nalmefene [5, 6]: 248 h; Mean conc Nalmefene ([5]; 1.00 h): 7.85 ng/mL; Mean conc Nalmefene ([5]; 2.00 h): 8.10 ng/mL; Mean conc Nalmefene ([5]; 4.00 h): 7.45 ng/mL; Mean conc Nalmefene ([5]; 8.00 h): 6.85 ng/mL; Mean conc Nalmefene ([5]; 24.0 h): 6.96 ng/mL; Mean conc Nalmefene ([5]; 48.0 h): 7.92 ng/mL; Mean conc Nalmefene ([5]; 72.0 h): 5.77 ng/mL; Mean conc Nalmefene ([5]; 144 h): 1.59 ng/mL; Mean conc Nalmefene ([5]; 312 h): 0.403 ng/mL; Mean conc Nalmefene ([5]; 480 h): 0.235 ng/mL; Mean conc Nalmefene ([5]; 648 h): 0.145 ng/mL
C=C1CC[C@@]2(O)[C@H]3Cc4ccc(O)c5c4[C@@]2(CCN3CC2CC2)[C@H]1O5.Cl [Nalmefene HCl-IR] | – | – | – | – | – | – | AUC0-inf (ng · h/mL) nalmefene ([5]; rat, 0.80 mg/kg, saline): 66.0 ng·h/mL; Terminal Half-life t1/2 (hour) nalmefene ([5]; rat, 0.80 mg/kg, saline): 0.87 h
